Test results reported in patent publication US20120135923A1, “Use of Melanocortins to Treat Dyslipidemia” (IPSEN PHARMA, S.A.S., priority 2009, published 2012).
Read-outs that look alike come from different tables or passages of the source. Bridge positions count the residues as written; N and C are the ends. Square brackets hold non-standard residues; d marks the D form. Peptide text beside a SMILES is read from it. Bip = N[C@@H](Cc1ccc(-c2ccccc2)cc1)C(=O)O; 1Nal = N[C@@H](Cc1cccc2ccccc12)C(=O)O; d2Nal = N[C@H](Cc1ccc2ccccc2c1)C(=O)O; hArg = N=C(N)NCCCC[C@H](N)C(=O)O; Nle = CCCC[C@H](N)C(=O)O; Ahx = NCCCCCC(=O)O; GABA = NCCCC(=O)O; βAla = NCCC(=O)O

How the values were obtained:
hMC4-R [1] = target: T1, hMC4-R (Homo sapiens, UniProt P32245); experiment: cyclic AMP bioassay (ECL) in CHO-K1 cells; type: cell-based; conditions: for Kb: Table 9C/9D, antagonist potency by Schild analysis, read-out: Kb MC4-R
T1 construct: expressed in transfected cells; host or cells: CHO-K1
T1 sequence (P32245 whole entry): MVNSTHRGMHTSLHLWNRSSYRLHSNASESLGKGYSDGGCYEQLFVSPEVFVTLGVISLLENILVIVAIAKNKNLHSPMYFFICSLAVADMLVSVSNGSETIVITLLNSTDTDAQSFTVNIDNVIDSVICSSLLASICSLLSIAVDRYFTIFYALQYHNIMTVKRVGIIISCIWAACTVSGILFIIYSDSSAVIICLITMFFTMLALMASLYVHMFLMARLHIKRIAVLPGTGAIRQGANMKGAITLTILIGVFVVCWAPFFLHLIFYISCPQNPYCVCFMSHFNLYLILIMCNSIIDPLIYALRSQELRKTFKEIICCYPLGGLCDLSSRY
Method: (§1) Intracellular cyclic AMP (cAMP) levels were determined by an electrochemiluminescence (ECL) assay (Meso Scale Discovery®, Gaithersburg, Md.; referred to hereinafter as MSD). […] Transgenic CHO-K1 cells stably expressing hMC receptor subtypes 1, 3, 4 or 5 were dispensed at a density of approximately 7,000 cells/well in 384-well Multi-Array®plates (MSD) containing integrated carbon electrodes and coated with anti-cAMP antibody. Increasing concentrations of the test compounds were added and the cells were incubated for approximately 40 minutes at approximately 37° C. […] At the end of the second incubation period read buffer (Tris-buffered solution containing an ECL co-reactant and Triton X-100 at ph 7.8) was added and the cAMP levels in the cell lysates were immediately determined by ECL detection with a Sector Imager 6000 Reader® (MSD). Data were analyzed using a computer-assisted non-linear regression analysis (XL fit; IDBS) and reported as either an EC50 value or a Kb value.
(§2) The Kb value reflects the potency of an antagonist and is determined by Schild analysis. In brief, concentration-response curves of an agonist are carried out in the presence of increasing concentrations of an antagonist. […] It is calculated by extrapolating the line on a Schild plot to zero on the y-axis.

hMC4-R [2] = target: T1, hMC4-R; experiment: Radioligand binding assay, [125I]-NDP-α-MSH competition, CHO-K1 membranes
hMC1-R [3] = target: T2, hMC1-R (Homo sapiens, UniProt Q01726); experiment: as above
T2 construct: expressed in transfected cells; host or cells: CHO-K1
T2 sequence (Q01726 whole entry): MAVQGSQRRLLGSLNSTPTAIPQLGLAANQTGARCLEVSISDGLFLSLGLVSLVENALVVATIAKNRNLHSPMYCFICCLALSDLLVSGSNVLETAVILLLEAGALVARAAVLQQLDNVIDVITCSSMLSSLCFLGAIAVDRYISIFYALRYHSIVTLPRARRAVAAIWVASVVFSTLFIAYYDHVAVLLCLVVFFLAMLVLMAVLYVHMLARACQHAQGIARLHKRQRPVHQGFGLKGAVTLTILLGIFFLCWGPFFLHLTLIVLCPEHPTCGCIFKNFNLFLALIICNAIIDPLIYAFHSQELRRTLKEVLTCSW

hMC5-R [4] = target: T3, hMC5-R (Homo sapiens, UniProt P33032); experiment: as above
T3 construct: expressed in transfected cells; host or cells: CHO-K1
T3 sequence (P33032 whole entry): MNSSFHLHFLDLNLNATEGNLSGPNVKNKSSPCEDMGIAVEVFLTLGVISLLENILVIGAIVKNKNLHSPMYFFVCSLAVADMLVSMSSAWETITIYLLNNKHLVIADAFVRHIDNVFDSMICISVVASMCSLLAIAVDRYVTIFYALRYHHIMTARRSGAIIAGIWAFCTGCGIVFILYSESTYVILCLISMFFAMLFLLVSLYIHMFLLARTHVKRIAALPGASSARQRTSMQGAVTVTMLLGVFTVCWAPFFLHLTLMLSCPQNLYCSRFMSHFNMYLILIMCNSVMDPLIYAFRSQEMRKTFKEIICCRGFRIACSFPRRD

hMC3-R [5] = target: T4, hMC3-R (Homo sapiens, UniProt P41968); experiment: as above
T4 construct: expressed in transfected cells; host or cells: CHO-K1
T4 sequence (P41968 whole entry): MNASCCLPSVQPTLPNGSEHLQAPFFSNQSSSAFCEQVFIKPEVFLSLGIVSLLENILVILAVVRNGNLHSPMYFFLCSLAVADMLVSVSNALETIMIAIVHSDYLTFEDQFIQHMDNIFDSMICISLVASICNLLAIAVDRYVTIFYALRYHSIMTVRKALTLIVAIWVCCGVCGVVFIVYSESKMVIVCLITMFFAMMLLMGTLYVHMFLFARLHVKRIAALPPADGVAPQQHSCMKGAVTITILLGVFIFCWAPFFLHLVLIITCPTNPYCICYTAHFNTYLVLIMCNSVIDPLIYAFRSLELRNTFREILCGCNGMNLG

hMC1-R [6] = target: T2, hMC1-R; experiment: cyclic AMP bioassay (ECL) in CHO-K1 cells; type: cell-based
Method: as §1, §2

hMC5-R [7] = target: T3, hMC5-R; experiment: cyclic AMP bioassay (ECL) in CHO-K1 cells; type: cell-based
Method: as §1, §2

hMC3-R [8] = target: T4, hMC3-R; experiment: cyclic AMP bioassay (ECL) in CHO-K1 cells; type: cell-based; conditions: for Kb: Table 9C/9D, antagonist potency by Schild analysis, read-out: Kb hMC3-R
Method: as §1, §2

[9] = Table 9C/9D, read-out: EC50 hMC1-R
[10] = Table 9C/9D, read-out: EC50 hMC5-R
[11] = Table 9A/9B, read-out: EC50 hMC4-R
[12] = Table 9A/9B, read-out: EC50 hMC1-R
[13] = Table 9A/9B, read-out: EC50 hMC5-R
[14] = Table 9A/9B, read-out: EC50 hMC3-R

Compound | Kb (hMC4-R [1]) [nM] | Ki (hMC4-R [2]; Table 5, read-out: Ki KMC4-R) [nM] | Ki (hMC1-R [3]; Table 5, read-out: Ki hMC1-R) [nM] | Ki (hMC5-R [4]; Table 5, read-out: Ki hMC5-R) [nM] | Ki (hMC3-R [5]; Table 5, read-out: Ki hMC3-R) [nM] | EC50 (hMC1-R [6]; [9]) [nM] | EC50 (hMC5-R [7]; [10]) [nM] | Kb (hMC3-R [8]) [nM] | also measured
CC(=O)N[C@@H](CC1CCCCC1)C(=O)N[C@H]1CC(=O)NCCCC[C@@H](C(N)=O)NC(=O)CCCNC(=O)[C@H](Cc2c[nH]c3ccccc23)NC(=O)[C@H](CCCNC(=N)N)NC(=O)[C@@H](Cc2ccc3ccccc3c2)NC(=O)[C@H](Cc2c[nH]cn2)NC1=O [Ac-Cha-c(Asp-His-D-2-Nal-Arg-Trp-Gaba-Lys)-NH2] | 0.442 | 2.82 | 0.576 | 3.91 | 3.98 | 1.27 | 0.736 | 3.02 | 
CCCC[C@H](NC(C)=O)C(=O)N[C@H]1CSSC[C@@H](C(N)=O)NC(=O)[C@H](Cc2cccc3ccccc23)NC(=O)[C@H](CCCNC(=N)N)NC(=O)[C@@H](Cc2ccc3ccccc3c2)NC(=O)[C@H](Cc2c[nH]cn2)NC(=O)[C@@H](C)NC1=O [Ac-Nle-c(Cys-D-Ala-His-D-2-Nal-Arg-1-Nal-Cys)-NH2] (Ac-[Nle]C[dA]H[d2Nal]R[1Nal]C-NH2; disulfide 2-8) | 53.6 | 3.07 | 114 | 1660 | 63.9 | 383 | 2840 | 61.5 | 
CCCC[C@H](NC(C)=O)C(=O)N[C@H]1CSSC[C@@H](C(N)=O)NC(=O)[C@H](Cc2c[nH]c3ccccc23)NC(=O)[C@H](CCCNC(=N)N)NC(=O)[C@@H](Cc2ccccc2)NC(=O)[C@H](Cc2c[nH]cn2)NC(=O)[C@@H](C)NC1=O [Ac-Nle-c(Cys-D-Ala-His-D-Phe-Arg-Trp-Cys)-NH2] |  |  |  |  |  |  |  |  | EC50 (hMC4-R [1]): 0.078 nM; Ki (hMC4-R [2]; Ki KMC4-R, Table 5): 7.6 nM; Ki (hMC1-R [3]; Ki hMC1-R, Table 5): 11 nM; Ki (hMC5-R [4]; Ki hMC5-R, Table 5): 1800 nM; Ki (hMC3-R [5]; Ki hMC3-R, Table 5): 26 nM; EC50 (hMC1-R [6]): 2.4 nM; EC50 (hMC5-R [7]): 420 nM; EC50 (hMC3-R [8]): 0.33 nM
CCCC[C@H](NC(C)=O)C(=O)N[C@H]1CSSC[C@@H](C(N)=O)NC(=O)CCCCCNC(=O)[C@H](Cc2c[nH]c3ccccc23)NC(=O)[C@H](CCCNC(=N)N)NC(=O)[C@@H](Cc2ccc3ccccc3c2)NC(=O)[C@H](Cc2c[nH]cn2)NC1=O [Ac-Nle-c(Cys-His-D-2-Nal-Arg-Trp-Ahx-Cys)-NH2] (Ac-[Nle]CH[d2Nal]RW[Ahx]C-NH2; disulfide 2-8 (inferred)) | 0.967 | 0.998 | 0.333 | 0.366 | 2.91 | 0.581 | 0.126 | 10.8 | 
CCCC[C@H](NC(C)=O)C(=O)N[C@H]1CSSC[C@@H](C(N)=O)NC(=O)CCCNC(=O)[C@H](Cc2c[nH]c3ccccc23)NC(=O)[C@H](CCCNC(=N)N)NC(=O)[C@@H](Cc2ccc3ccccc3c2)NC(=O)[C@H](Cc2c[nH]cn2)NC1=O [Ac-Nle-c(Cys-His-D-2-Nal-Arg-Trp-Gaba-Cys)-NH2] (Ac-[Nle]CH[d2Nal]RW[GABA]C-NH2; disulfide 2-8) | 0.782 | 0.375 | 0.393 | 1.11 | 1.86 | 0.231 | 0.153 | 18.4 | 
C[C@@H]1C(=O)N[C@@H](Cc2cnc[nH]2)C(=O)N[C@H](Cc2ccccc2)C(=O)N[C@@H](CCCNC(=N)N)C(=O)N[C@@H](Cc2c[nH]c3ccccc23)C(=O)N[C@H](C(N)=O)CCNC(=O)CC[C@@H]2NC(=O)N1C2=O [c[Hydantoin(C(O)-(Glu-D-Ala))-His-D-Phe-Arg-Trp-Dab]-NH2] |  |  |  |  |  |  |  |  | Ki (hMC4-R [2]; Table 7, read-out: Ki hMC4): 12.7 nM; Ki (hMC1-R [3]; Table 7, read-out: Ki hMC1): 28 nM; Ki (hMC5-R [4]; Table 7, read-out: Ki hMC5): 877 nM; Ki (hMC3-R [5]; Table 7, read-out: Ki hMC3): 90.5 nM

Now from value to compound, other results behind:

Kb (hMC4-R [1]) [nM] | Ki (hMC4-R [2]; Table 5, read-out: Ki KMC4-R) [nM] | Ki (hMC1-R [3]; Table 5, read-out: Ki hMC1-R) [nM] | Ki (hMC5-R [4]; Table 5, read-out: Ki hMC5-R) [nM] | Ki (hMC3-R [5]; Table 5, read-out: Ki hMC3-R) [nM] | EC50 (hMC1-R [6]; [9]) [nM] | EC50 (hMC5-R [7]; [10]) [nM] | Kb (hMC3-R [8]) [nM] | Compound | also measured
 | 36.9 | 0.128 | 38 | 85.6 |  |  |  | CCOc1ccc(C[C@H]2NC(=O)[C@H](Cc3c[nH]cn3)NC(=O)[C@@H](NC(=O)[C@H](N)Cc3ccccc3)CSSC[C@H](C(=O)N[C@H](C(N)=O)[C@@H](C)O)NC(=O)CCNC(=O)[C@H](Cc3ccc(-c4ccccc4)cc3)NC(=O)[C@H](CCCCNC(=N)N)NC2=O)cc1 [D-Phe-c(Cys-His-D-(Et)Tyr-hArg-Bip-β-Ala-D-Cys)-Thr-NH2] (H-[dF]CH[dY](Et)[hArg][Bip][βAla][dC]T-NH2; disulfide 2-8) | EC50 (hMC4-R [1]; [11]): 86.9 nM; EC50 (hMC1-R [6]; [12]): 0.685 nM; EC50 (hMC5-R [7]; [13]): 31.8 nM; EC50 (hMC3-R [8]; [14]): 81.8 nM
 | 14.7 | 0.0567 | 9.27 | 31.4 |  |  |  | CCOc1ccc(C[C@H]2NC(=O)[C@H](Cc3c[nH]cn3)NC(=O)[C@@H](NC(=O)[C@H](N)Cc3ccccc3)CSSC[C@H](C(=O)N[C@H](C(N)=O)[C@@H](C)O)NC(=O)CCNC(=O)[C@H](Cc3c[nH]c4ccccc34)NC(=O)[C@H](CCCCNC(=N)N)NC2=O)cc1 [D-Phe-c(Cys-His-D-(Et)Tyr-hArg-Trp-β-Ala-D-Cys)-Thr-NH2] (H-[dF]CH[dY](Et)[hArg]W[βAla][dC]T-NH2; disulfide 2-8) | EC50 (hMC4-R [1]; [11]): 5.38 nM; EC50 (hMC1-R [6]; [12]): 0.345 nM; EC50 (hMC5-R [7]; [13]): 2.38 nM; EC50 (hMC3-R [8]; [14]): 2.71 nM
 | 2.58 | 0.207 | 344 | 43.2 |  |  |  | C[C@@H](O)[C@H](NC(=O)[C@H]1CSSC[C@H](NC(=O)[C@H](N)Cc2ccccc2)C(=O)N[C@@H](Cc2c[nH]cn2)C(=O)N[C@H](Cc2ccccc2)C(=O)N[C@@H](CCCNC(=N)N)C(=O)N[C@@H](Cc2c[nH]c3ccccc23)C(=O)NCCC(=O)N1)C(N)=O [D-Phe-c(Cys-His-D-Phe-Arg-Trp-β-Ala-D-Cys)-Thr-NH2] (H-[dF]CH[dF]RW[βAla][dC]T-NH2; disulfide 2-8) | 
 | 172 | 1.68 | 1220 | 1260 |  |  |  | C[C@@H](O)[C@H](NC(=O)[C@H]1CSSC[C@H](NC(=O)[C@H](N)Cc2ccccc2)C(=O)N[C@@H](Cc2c[nH]cn2)C(=O)N[C@H](Cc2ccccc2)C(=O)N[C@@H](CCCCNC(=N)N)C(=O)N[C@@H](Cc2ccc(-c3ccccc3)cc2)C(=O)NCCC(=O)N1)C(N)=O [D-Phe-c(Cys-His-D-Phe-hArg-Bip-β-Ala-D-Cys)-Thr-NH2] (H-[dF]CH[dF][hArg][Bip][βAla][dC]T-NH2; disulfide 2-8 (inferred)) | 
 | 10.3 | 0.442 | 521 | 123 |  |  |  | C[C@@H](O)[C@H](NC(=O)[C@H]1CSSC[C@H](NC(=O)[C@H](N)Cc2ccccc2)C(=O)N[C@@H](Cc2c[nH]cn2)C(=O)N[C@H](Cc2ccccc2)C(=O)N[C@@H](CCCCNC(=N)N)C(=O)N[C@@H](Cc2c[nH]c3ccccc23)C(=O)NCCC(=O)N1)C(N)=O [D-Phe-c(Cys-His-D-Phe-hArg-Trp-β-Ala-D-Cys)-Thr-NH2] (H-[dF]CH[dF][hArg]W[βAla][dC]T-NH2; disulfide 2-8) | 
